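A five-concentration, 48-hour dose response in 96-well plates underlies each endpoint, interpolated linearly between surrounding concentrations. GI50 marks 50% less growth. Definition used: TGI = concentration required for complete inhibition of growth.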
How the values were obtained:
Experiment in all cases: NCI-60 cell line screen, 48 h; in the data active = GI50 below about 0.43 µM; inactive = the rest
786-0 renal = system: 786-0 renal
A498 renal = system: A498 renal
A549 NSCLC = system: A549 NSCLC
ACHN renal = system: ACHN renal
BT-549 breast = system: BT-549 breast
CAKI-1 renal = system: CAKI-1 renal
COLO 205 colon = system: COLO 205 colon
DU-145 prostate = system: DU-145 prostate
EKVX NSCLC = system: EKVX NSCLC
HCC-2998 colon = system: HCC-2998 colon
HCT-15 colon = system: HCT-15 colon
HOP-62 NSCLC = system: HOP-62 NSCLC
HS 578T breast = system: HS 578T breast
HT29 colon = system: HT29 colon
K-562 leukemia = system: K-562 leukemia
KM12 colon = system: KM12 colon
LOX IMVI melanoma = system: LOX IMVI melanoma
M14 melanoma = system: M14 melanoma
MALME-3M melanoma = system: MALME-3M melanoma
MDA-MB-231 breast = system: MDA-MB-231 breast
MDA-MB-435 = system: MDA-MB-435
MDA-N = system: MDA-N
NCI-H226 lung = system: NCI-H226 lung
NCI-H23 lung = system: NCI-H23 lung
NCI-H460 lung = system: NCI-H460 lung
NCI/ADR-RES ovarian = system: NCI/ADR-RES ovarian
OVCAR-3 ovarian = system: OVCAR-3 ovarian
OVCAR-4 ovarian = system: OVCAR-4 ovarian
OVCAR-5 ovarian = system: OVCAR-5 ovarian
OVCAR-8 ovarian = system: OVCAR-8 ovarian
RPMI-8226 leukemia = system: RPMI-8226 leukemia
RXF 393 renal = system: RXF 393 renal
SF-268 CNS = system: SF-268 CNS
SF-295 CNS = system: SF-295 CNS
SF-539 CNS = system: SF-539 CNS
SK-MEL-2 melanoma = system: SK-MEL-2 melanoma
SK-MEL-28 melanoma = system: SK-MEL-28 melanoma
SK-MEL-5 melanoma = system: SK-MEL-5 melanoma
SK-OV-3 ovarian = system: SK-OV-3 ovarian
SN12C renal = system: SN12C renal
SNB-19 CNS = system: SNB-19 CNS
SR leukemia = system: SR leukemia
SW-620 colon = system: SW-620 colon
T-47D breast = system: T-47D breast
TK-10 renal = system: TK-10 renal
U251 CNS = system: U251 CNS
UACC-257 melanoma = system: UACC-257 melanoma
UACC-62 melanoma = system: UACC-62 melanoma
UO-31 renal = system: UO-31 renal
CCRF-CEM leukemia = system: CCRF-CEM leukemia
HCT-116 colon = system: HCT-116 colon
IGROV1 ovarian = system: IGROV1 ovarian
MCF7 breast = system: MCF7 breast
MOLT-4 leukemia = system: MOLT-4 leukemia
NCI-H522 lung = system: NCI-H522 lung
PC-3 prostate = system: PC-3 prostate
SNB-75 CNS = system: SNB-75 CNS
HL-60(TB) leukemia = system: HL-60(TB) leukemia

CCN(CC)C(=S)SS(=O)(=O)c1ccc([N+](=O)[O-])cc1
32.4 µM: TGI (786-0 renal)
24.5 µM: TGI (KM12 colon)
> 100 µM: TGI (A498 renal) | TGI (A549 NSCLC) | TGI (ACHN renal) | TGI (BT-549 breast) | TGI (COLO 205 colon) | TGI (EKVX NSCLC) | TGI (HCC-2998 colon) | TGI (HCT-15 colon) | TGI (HOP-62 NSCLC) | TGI (HS 578T breast) | TGI (K-562 leukemia) | TGI (MDA-N) | TGI (NCI-H226 lung) | TGI (NCI-H23 lung) | TGI (NCI-H460 lung) | TGI (NCI/ADR-RES ovarian) | TGI (OVCAR-3 ovarian) | TGI (OVCAR-4 ovarian) | TGI (OVCAR-5 ovarian) | TGI (SF-268 CNS) | TGI (SF-295 CNS) | TGI (SK-MEL-2 melanoma) | TGI (SK-OV-3 ovarian) | TGI (SN12C renal) | TGI (SNB-19 CNS) | TGI (T-47D breast) | TGI (TK-10 renal) | TGI (UACC-62 melanoma)
40 µM: TGI (SF-539 CNS)
38.3 µM: TGI (SK-MEL-28 melanoma)
42.5 µM: TGI (OVCAR-8 ovarian)
47 µM: TGI (UO-31 renal)
33.8 µM: TGI (LOX IMVI melanoma)
29.2 µM: TGI (SK-MEL-5 melanoma)
37.1 µM: TGI (SW-620 colon)
34.4 µM: TGI (CAKI-1 renal)
54.5 µM: TGI (SR leukemia)
54.7 µM: TGI (MDA-MB-435)
48.8 µM: TGI (RPMI-8226 leukemia)
82.4 µM: TGI (DU-145 prostate)
37.9 µM: TGI (MALME-3M melanoma)
36.7 µM: TGI (U251 CNS)
53.5 µM: TGI (UACC-257 melanoma)
64.7 µM: TGI (HT29 colon)
inactive: GI50 (ACHN renal) 36.5 µM | GI50 (DU-145 prostate) 27.2 µM | GI50 (HCC-2998 colon) 93.7 µM | GI50 (HCT-15 colon) 52.7 µM | GI50 (HOP-62 NSCLC) 32.1 µM | GI50 (HS 578T breast) > 100 µM | GI50 (HT29 colon) 22 µM | GI50 (KM12 colon) 11.1 µM | GI50 (M14 melanoma) 14.9 µM | GI50 (MDA-MB-231 breast) 25.9 µM | GI50 (MDA-MB-435) 23.2 µM | GI50 (MDA-N) 30.2 µM | GI50 (NCI-H226 lung) 83.8 µM | GI50 (NCI/ADR-RES ovarian) 48.3 µM | GI50 (OVCAR-3 ovarian) 35.4 µM | GI50 (OVCAR-4 ovarian) 45.5 µM | GI50 (RXF 393 renal) 16 µM | GI50 (SF-268 CNS) > 100 µM | GI50 (SF-295 CNS) 58.9 µM | GI50 (SK-MEL-28 melanoma) 19 µM | GI50 (SN12C renal) 26.9 µM | GI50 (SW-620 colon) 17.9 µM | GI50 (TK-10 renal) 43.1 µM | GI50 (UACC-257 melanoma) 24 µM
66.4 µM: TGI (MDA-MB-231 breast)
32.1 µM: TGI (RXF 393 renal)
28.6 µM: TGI (M14 melanoma)

N/C(=N/n1c(=S)[nH]c2ccccc2c1=O)Nn1c(=S)[nH]c2ccccc2c1=O
79 µM: TGI (NCI-H226 lung)
34.2 µM: TGI (786-0 renal)
31 µM: TGI (MOLT-4 leukemia)
52 µM: TGI (SR leukemia)
72.3 µM: TGI (U251 CNS)
46 µM: TGI (LOX IMVI melanoma)
85.4 µM: TGI (MDA-N)
56.8 µM: TGI (SF-268 CNS)
38.6 µM: TGI (SW-620 colon)
48.2 µM: TGI (CCRF-CEM leukemia)
30.4 µM: TGI (HCT-116 colon)
77.6 µM: TGI (COLO 205 colon)
66.3 µM: TGI (T-47D breast)
62.4 µM: TGI (NCI-H23 lung)
26.3 µM: TGI (CAKI-1 renal)
30 µM: TGI (NCI-H522 lung)
55.5 µM: TGI (HCT-15 colon)
57.5 µM: TGI (RPMI-8226 leukemia)
23.8 µM: TGI (M14 melanoma)
83.6 µM: TGI (K-562 leukemia)
27.3 µM: TGI (UO-31 renal)
56.2 µM: TGI (SF-539 CNS)
45.6 µM: TGI (MALME-3M melanoma)
72.6 µM: TGI (SK-MEL-28 melanoma)
> 100 µM: TGI (A498 renal) | TGI (A549 NSCLC) | TGI (ACHN renal) | TGI (DU-145 prostate) | TGI (EKVX NSCLC) | TGI (HCC-2998 colon) | TGI (IGROV1 ovarian) | TGI (KM12 colon) | TGI (MCF7 breast) | TGI (MDA-MB-231 breast) | TGI (MDA-MB-435) | TGI (NCI-H460 lung) | TGI (NCI/ADR-RES ovarian) | TGI (OVCAR-3 ovarian) | TGI (OVCAR-4 ovarian) | TGI (OVCAR-5 ovarian) | TGI (OVCAR-8 ovarian) | TGI (PC-3 prostate) | TGI (RXF 393 renal) | TGI (SF-295 CNS) | TGI (SK-MEL-2 melanoma) | TGI (SK-MEL-5 melanoma) | TGI (SK-OV-3 ovarian) | TGI (SNB-19 CNS) | TGI (SNB-75 CNS) | TGI (TK-10 renal) | TGI (UACC-257 melanoma) | TGI (UACC-62 melanoma)
93.1 µM: TGI (HOP-62 NSCLC)
55.4 µM: TGI (BT-549 breast)

CNC(=O)c1[nH]cnc1/N=N/N(C)N
> 100 µM: TGI (786-0 renal) | TGI (A498 renal) | TGI (A549 NSCLC) | TGI (BT-549 breast) | TGI (CAKI-1 renal) | TGI (COLO 205 colon) | TGI (DU-145 prostate) | TGI (EKVX NSCLC) | TGI (HCC-2998 colon) | TGI (HCT-116 colon) | TGI (HCT-15 colon) | TGI (HOP-62 NSCLC) | TGI (HS 578T breast) | TGI (HT29 colon) | TGI (IGROV1 ovarian) | TGI (K-562 leukemia) | TGI (KM12 colon) | TGI (LOX IMVI melanoma) | TGI (M14 melanoma) | TGI (MALME-3M melanoma) | TGI (MDA-MB-231 breast) | TGI (MDA-MB-435) | TGI (MDA-N) | TGI (MOLT-4 leukemia) | TGI (NCI-H226 lung) | TGI (NCI-H23 lung) | TGI (NCI-H460 lung) | TGI (NCI-H522 lung) | TGI (NCI/ADR-RES ovarian) | TGI (OVCAR-3 ovarian) | TGI (OVCAR-4 ovarian) | TGI (OVCAR-5 ovarian) | TGI (OVCAR-8 ovarian) | TGI (PC-3 prostate) | TGI (RPMI-8226 leukemia) | TGI (RXF 393 renal) | TGI (SF-268 CNS) | TGI (SF-295 CNS) | TGI (SF-539 CNS) | TGI (SK-MEL-2 melanoma) | TGI (SK-MEL-28 melanoma) | TGI (SK-MEL-5 melanoma) | TGI (SK-OV-3 ovarian) | TGI (SN12C renal) | TGI (SNB-75 CNS) | TGI (SW-620 colon) | TGI (T-47D breast) | TGI (TK-10 renal) | TGI (U251 CNS) | TGI (UACC-257 melanoma) | TGI (UACC-62 melanoma) | TGI (UO-31 renal)

Cc1cccc(NC(=S)Nc2ccccc2Cl)n1
88.3 µM: TGI (MALME-3M melanoma)
67.8 µM: TGI (EKVX NSCLC)
73.7 µM: TGI (OVCAR-8 ovarian)
62 µM: TGI (SF-268 CNS)
46.2 µM: TGI (HOP-62 NSCLC)
51.8 µM: TGI (SK-OV-3 ovarian)
96.4 µM: TGI (CAKI-1 renal)
60 µM: TGI (RXF 393 renal)
79.4 µM: TGI (KM12 colon)
52.7 µM: TGI (SNB-75 CNS)
> 100 µM: TGI (786-0 renal) | TGI (A549 NSCLC) | TGI (BT-549 breast) | TGI (CCRF-CEM leukemia) | TGI (COLO 205 colon) | TGI (DU-145 prostate) | TGI (HCT-116 colon) | TGI (HCT-15 colon) | TGI (HL-60(TB) leukemia) | TGI (HS 578T breast) | TGI (HT29 colon) | TGI (IGROV1 ovarian) | TGI (K-562 leukemia) | TGI (LOX IMVI melanoma) | TGI (M14 melanoma) | TGI (MCF7 breast) | TGI (MDA-MB-435) | TGI (MDA-N) | TGI (MOLT-4 leukemia) | TGI (NCI-H226 lung) | TGI (NCI-H460 lung) | TGI (NCI/ADR-RES ovarian) | TGI (OVCAR-3 ovarian) | TGI (OVCAR-5 ovarian) | TGI (PC-3 prostate) | TGI (RPMI-8226 leukemia) | TGI (SF-295 CNS) | TGI (SF-539 CNS) | TGI (SK-MEL-2 melanoma) | TGI (SK-MEL-28 melanoma) | TGI (SK-MEL-5 melanoma) | TGI (SN12C renal) | TGI (SR leukemia) | TGI (SW-620 colon) | TGI (T-47D breast) | TGI (TK-10 renal) | TGI (U251 CNS) | TGI (UACC-62 melanoma) | TGI (UO-31 renal)
74.2 µM: TGI (UACC-257 melanoma)
64.6 µM: TGI (A498 renal)
57.8 µM: TGI (OVCAR-4 ovarian)
97.5 µM: TGI (SNB-19 CNS)

— PubChem BioAssay (NCI)
